This passage reports IC50 results from patent publication US10738056B2 (Aduro BioTech, Inc., priority 2017, dated 2020).

Read-outs that look alike come from different tables or passages of the source. Where only a bound is given, the exact number is not on record here.

In test [1] the target is Human cGAS amino acids 155-522 (Homo sapiens (Human), UniProt Q8N884). Briefly: cGAS biochemical activity assay (ATP remaining, Kinase-Glo Max luminescence). The conditions noted are these: human cGAS 155-522, ATP remaining (Kinase-Glo Max); read-out: cGAS IC50.
Test [2] deals with cGAS/STING pathway in THP1 cells. Description: THP1 cell-based cGAS/STING pathway activity assay (IRF-3-linked luciferase reporter). The procedure, abridged:
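THP1 cells carrying an IRF-3-driven luciferase reporter were read across a range of compound concentrations, and IC50 values were derived from these concentration responses; the assay upper limit was 100 μM.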
Background: In a reporter assay the amount or activity of a reporter protein is the signal.

Human cGAS amino acids 155-522, sequence (Q8N884 157-522): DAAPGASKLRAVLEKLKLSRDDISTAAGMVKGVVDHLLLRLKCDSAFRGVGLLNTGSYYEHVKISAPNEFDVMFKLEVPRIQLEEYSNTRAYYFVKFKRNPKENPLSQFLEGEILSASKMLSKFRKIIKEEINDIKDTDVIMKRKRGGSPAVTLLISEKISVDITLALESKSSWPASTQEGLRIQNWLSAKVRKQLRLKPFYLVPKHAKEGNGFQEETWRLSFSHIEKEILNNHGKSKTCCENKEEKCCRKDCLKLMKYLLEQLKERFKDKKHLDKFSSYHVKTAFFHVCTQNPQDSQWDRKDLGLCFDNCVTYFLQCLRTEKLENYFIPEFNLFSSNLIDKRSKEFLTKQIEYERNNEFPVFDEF

On to `Cc1[nH]c2c(-c3ccccc3)c(C(F)(F)F)nn2c(=O)c1C(=O)Nc1cc[nH]n1` [Compound A1076, 5-methyl-7-oxo-3-phenyl-N-(1H-pyrazol-3-yl)-2-(trifluoromethyl)-4,7-dihydropyrazolo[1,5-a]pyrimidine-6-carboxamide], for which the IC50 in test [1] is under 20 µM; in test [2] (Homo sapiens, THP-1), 20 to 100 µM.
For `COc1cccc2oc(-c3c(C(=O)O)[nH]c4c(-c5ccccc5)c(C(F)(F)F)nn4c3=O)nc12` [Compound C1131, 6-(4-methoxybenzo[d]oxazol-2-yl)-7-oxo-3-phenyl-2-(trifluoromethyl)-4,7-dihydropyrazolo[1,5-a]pyrimidine-5-carboxylic acid], in that order: under 20 µM and over 100 µM.
For `COCc1nnc(-c2c(C)[nH]c3c(-c4ccccc4)c(C(F)(F)F)nn3c2=O)o1` [Compound D1019, 6-(5-(methoxymethyl)-1,3,4-oxadiazol-2-yl)-5-methyl-3-phenyl-2-(trifluoromethyl)pyrazolo[1,5-a]pyrimidin-7(4H)-one] the same measures were under 20 µM and over 100 µM.
In the case of `COc1cccc2oc(-c3c[nH]c4c(-c5ccccc5)c(C(F)(F)F)nn4c3=O)nc12` [Compound C1079, 6-(4-methoxybenzo[d]oxazol-2-yl)-3-phenyl-2-(trifluoromethyl)pyrazolo[1,5-a]pyrimidin-7(4H)-one], the half-maximal inhibitory concentration (IC50) was over 250 µM in test [1] and under 20 µM in test [2] (Homo sapiens, THP-1).
For `COc1cccc2oc(-c3c(COCC4CNC(=O)O4)[nH]c4c(-c5ccccc5)c(C(F)(F)F)nn4c3=O)nc12` (stereo not shown) [Compound C1177, 5-(((6-(4-methoxybenzo[d]oxazol-2-yl)-7-oxo-3-phenyl-2-(trifluoromethyl)-4,7-dihydropyrazolo[1,5-a]pyrimidin-5-yl)methoxy)methyl)oxazolidin-2-one] the same measures were under 20 µM and 20 to 100 µM.
For `Cc1[nH]c2c(-c3ccccc3)c(C(F)(F)F)nn2c(=O)c1C(=O)Nc1cccc2c1OC(F)(F)O2` [Compound A1062, N-(2,2-difluorobenzo[d][1,3]dioxol-4-yl)-5-methyl-7-oxo-3-phenyl-2-(trifluoromethyl)-4,7-dihydropyrazolo[1,5-a]pyrimidine-6-carboxamide] the same measures were under 20 µM and under 20 µM.
For `Cc1[nH]c2c(-c3ccccc3)c(C(F)(F)F)nn2c(=O)c1-c1nc2c(OCC(N)=O)cccc2o1` [Compound C1122, 2-((2-(5-methyl-7-oxo-3-phenyl-2-(trifluoromethyl)-4,7-dihydropyrazolo[1,5-a]pyrimidin-6-yl)benzo[d]oxazol-4-yl)oxy)acetamide], in that order: under 20 µM and 20 to 100 µM.
For `Cc1[nH]c2c(-c3ccccc3)c(C(F)(F)F)nn2c(=O)c1-c1nnc(C2CCCCO2)o1` (stereo not shown) [Compound D1024, 5-methyl-3-phenyl-6-(5-(tetrahydro-2H-pyran-2-yl)-1,3,4-oxadiazol-2-yl)-2-(trifluoromethyl)pyrazolo[1,5-a]pyrimidin-7(4H)-one], the IC50 was under 20 µM in test [1] and over 100 µM in test [2] (Homo sapiens, THP-1).
For `Cc1[nH]c2c(-c3ccccc3)c(C(F)(F)F)nn2c(=O)c1-c1nc2c(o1)CCCC2=O` [Compound C1033, 2-(5-methyl-7-oxo-3-phenyl-2-(trifluoromethyl)-4,7-dihydropyrazolo[1,5-a]pyrimidin-6-yl)-6,7-dihydrobenzo[d]oxazol-4(5H)-one] the same measures were under 20 µM and over 100 µM.
For `COc1nn2c(=O)c(-c3nc4c(OC)cccc4o3)c(C)[nH]c2c1-c1ccccc1` [Compound C1064, 2-methoxy-6-(4-methoxybenzo[d]oxazol-2-yl)-5-methyl-3-phenylpyrazolo[1,5-a]pyrimidin-7(4H)-one], in that order: 20 to 250 µM and under 20 µM.
For `COc1cccc(NC(=O)c2c(C)[nH]c3c(-c4ccccc4)c(C(F)(F)F)nn3c2=O)n1` [Compound A1064, N-(6-methoxypyridin-2-yl)-5-methyl-7-oxo-3-phenyl-2-(trifluoromethyl)-4,7-dihydropyrazolo[1,5-a]pyrimidine-6-carboxamide], in that order: under 20 µM and 20 to 100 µM.
As to `COc1cccc2oc(-c3c(COC4CCNC4=O)[nH]c4c(-c5ccccc5)c(C(F)(F)F)nn4c3=O)nc12` (stereo not shown) [Compound C1159, 6-(4-methoxybenzo[d]oxazol-2-yl)-5-(((2-oxopyrrolidin-3-yl)oxy)methyl)-3-phenyl-2-(trifluoromethyl)pyrazolo[1,5-a]pyrimidin-7(4H)-one], the IC50 is under 20 µM in test [1] and over 100 µM in test [2] (Homo sapiens, THP-1).
As for `Cc1[nH]c2c(-c3ccccc3)c(C(F)(F)F)nn2c(=O)c1-c1nc2c(OCCNS(C)(=O)=O)cccc2o1` [Compound C1066, N-(2-((2-(5-methyl-7-oxo-3-phenyl-2-(trifluoromethyl)-4,7-dihydropyrazolo[1,5-a]pyrimidin-6-yl)benzo[d]oxazol-4-yl)oxy)ethyl)methanesulfonamide], the IC50 was under 20 µM in test [1] and over 100 µM in test [2] (Homo sapiens, THP-1).
For `Cc1[nH]c2c(-c3ccccc3)c(C(F)(F)F)nn2c(=O)c1C(=O)Nc1ncco1` [Compound A1074, 5-methyl-N-(oxazol-2-yl)-7-oxo-3-phenyl-2-(trifluoromethyl)-4,7-dihydropyrazolo[1,5-a]pyrimidine-6-carboxamide] the same measures were under 20 µM and over 100 µM.
For `Cc1[nH]c2c(-c3ccccc3)c(C(F)(F)F)nn2c(=O)c1C(=O)NS(=O)(=O)C1CCCCC1` [Compound A1124, N-(cyclohexylsulfonyl)-5-methyl-7-oxo-3-phenyl-2-(trifluoromethyl)-4,7-dihydropyrazolo[1,5-a]pyrimidine-6-carboxamide] the same measures were under 20 µM and over 100 µM.
For `COc1cc(N)c(Cl)c2oc(-c3c(C)[nH]c4c(-c5ccccc5)c(C#N)nn4c3=O)nc12` [Compound C1202, 6-(6-amino-7-chloro-4-methoxybenzo[d]oxazol-2-yl)-5-methyl-7-oxo-3-phenyl-4,7-dihydropyrazolo[1,5-a]pyrimidine-2-carbonitrile] the same measures were under 20 µM and 20 to 100 µM.
With `CO[C@@H]1CCCC(c2nnc(-c3c(C)[nH]c4c(-c5ccccc5)c(C(F)(F)F)nn4c3=O)o2)C1` (stereo partly shown) [D1021 Iso-2], the IC50 in test [1] is under 20 µM; in test [2] (read-out: THP-1 IC50) it was over 100 µM.
For the compound `COc1cccc2oc(-c3c(C(=O)NC4COC4)[nH]c4c(-c5ccccc5)c(C(F)(F)F)nn4c3=O)nc12` [Compound C1185, 6-(4-methoxybenzo[d]oxazol-2-yl)-N-(oxetan-3-yl)-7-oxo-3-phenyl-2-(trifluoromethyl)-4,7-dihydropyrazolo[1,5-a]pyrimidine-5-carboxamide], the IC50 in test [1] is under 20 µM; in test [2] (Homo sapiens, THP-1), 20 to 100 µM.
For `COc1[nH]c2c(-c3ccccc3)c(C(F)(F)F)nn2c(=O)c1-c1nc2c(OC)cccc2o1` [Compound C1084, 5-methoxy-6-(4-methoxybenzo[d]oxazol-2-yl)-3-phenyl-2-(trifluoromethyl)pyrazolo[1,5-a]pyrimidin-7(4H)-one] the same measures were under 20 µM and under 20 µM.
For `COc1cccc2nc(-c3c(C)[nH]c4c(-c5ccccc5)c(C(F)(F)F)nn4c3=O)[nH]c(=O)c12` [Compound C1024, 5-methoxy-2-(5-methyl-7-oxo-3-phenyl-2-(trifluoromethyl)-4,7-dihydropyrazolo[1,5-a]pyrimidin-6-yl)quinazolin-4(3H)-one] the same measures were under 20 µM and 20 to 100 µM.
For `COc1ccc(S(C)(=O)=O)c2oc(-c3c(C)[nH]c4c(-c5ccccc5)c(C(F)(F)F)nn4c3=O)nc12` [Compound C1125, 6-(4-methoxy-7-(methylsulfonyl)benzo[d]oxazol-2-yl)-5-methyl-3-phenyl-2-(trifluoromethyl)pyrazolo[1,5-a]pyrimidin-7(4H)-one], in that order: under 20 µM and 20 to 100 µM.
On to `COCc1coc(-c2c(C)[nH]c3c(-c4ccccc4)c(C(F)(F)F)nn3c2=O)n1` [Compound C1108, 6-(4-(methoxymethyl)oxazol-2-yl)-5-methyl-3-phenyl-2-(trifluoromethyl)pyrazolo[1,5-a]pyrimidin-7(4H)-one], for which the concentration for half-maximal inhibition (IC50) in test [1] is under 20 µM; in test [2] (Homo sapiens, THP-1), over 100 µM.
For `COc1ccc2oc(-c3c(C)[nH]c4c(-c5ccccc5)c(C(F)(F)F)nn4c3=O)nc2c1` [Compound C1012, 6-(5-methoxybenzo[d]oxazol-2-yl)-5-methyl-3-phenyl-2-(trifluoromethyl)pyrazolo[1,5-a]pyrimidin-7(4H)-one] the same measures were over 250 µM and under 20 µM.
For `Cc1[nH]c2c(-c3ccccc3)c(C(F)(F)F)nn2c(=O)c1-c1nnc(C2CCCCN2S(C)(=O)=O)o1` (stereo not shown) [Compound D1056, 5-methyl-6-(5-(1-(methylsulfonyl)piperidin-2-yl)-1,3,4-oxadiazol-2-yl)-3-phenyl-2-(trifluoromethyl)pyrazolo[1,5-a]pyrimidin-7(4H)-one] the same measures were under 20 µM and over 100 µM.
For `COC1(c2nnc(-c3c(C)[nH]c4c(-c5ccccc5)c(C(F)(F)F)nn4c3=O)o2)CCCC1` [Compound D1055, 6-(5-(1-methoxycyclopentyl)-1,3,4-oxadiazol-2-yl)-5-methyl-3-phenyl-2-(trifluoromethyl)pyrazolo[1,5-a]pyrimidin-7(4H)-one], in that order: under 20 µM and 20 to 100 µM.
Turning to `Cc1[nH]c2c(-c3ccccc3)c(C(F)(F)F)nn2c(=O)c1C(=O)NCc1ccccc1` [Compound A1023, N-benzyl-5-methyl-7-oxo-3-phenyl-2-(trifluoromethyl)-4,7-dihydropyrazolo[1,5-a]pyrimidine-6-carboxamide], the 50% inhibitory concentration (IC50) in test [1] was 20 to 250 µM; in test [2] (Homo sapiens, THP-1), 20 to 100 µM.

Usually IC50 stands for the concentration that gives 50% inhibition.
